We go through 1 compound from PMC5444710, “Enhancement of radiosensitivity by the novel anticancer quinolone derivative vosaroxin in preclinical glioblastoma models” (Oncotarget, 2017).

Molecules are shown by their SMILES.

For test [1], the system named is U87MG xenografts. Description: Subcutaneous xenograft model: tumor weight and time to progression. It is filed as in vivo, female CD1-nu/nu mice. To be noted: for HR (95% CI) for tumor progression: U87MG. The protocol:
(§1) Female CD1-nu/nu mice, at 6 weeks of age, were purchased from Charles River (Milan, Italy) under the guidelines established by our institution (University of L’Aquila, Medical School and Science and Technology School Board Regulations, complying with Italian government regulation n.116, January 27, 1992, for the use of laboratory animals). All mice received subcutaneous flank injections (2 each) of 1 × 10^6 U251, U87MG, and T98G cells representing models for MGMT-negative and MGMT-positive cells. Tumor growth was assessed biweekly by measuring tumor diameters with a Vernier caliper (length × width). Tumor weight was calculated according to the formula tumor weight (mg) = tumor volume (mm^3) = d2 × D/2, where d and D are the shortest and longest diameters, respectively. The effects of the treatments were assessed as previously described. At about 10 days after the tumor injection, 30 mice with tumor volumes of 0.5–0.8 cm^3 were randomly divided into 6 groups (5 mice per group with 2 tumors each): (1) control (vehicle); (2) vosaroxin (10 mg/kg every 5 days for 5 weeks intravenous [IV] injection into tail vein; (3) radiotherapy (RT; 4 Gy delivered in a single fraction); (4) vosaroxin in combination with RT; (5) temozolomide (16 mg/kg 5 consecutive days) and (6) temozolomide in combination with RT. Anesthetized tumor-bearing mice received focal irradiation. Irradiation was delivered using an x-ray linear accelerator at a dose rate of 200 cGy/min at room temperature. All mice were shielded with a specially designed lead apparatus to allow irradiation to the right hind limb. At the end of the study (35 days after the start of treatments), animals were sacrificed by carbon dioxide inhalation and tumors were then removed surgically. Half of the tumor was directly frozen in liquid nitrogen for protein analysis and the other half was fixed in paraformaldehyde overnight for immunohistochemical analyses.
(§2) The following parameters were used to quantify the antitumor effects of different treatments as previously described: tumor volume, measured throughout the experiment; tumor weight, measured at the end of the experiment; tumor progression, defined as an increase of greater than 50% of tumor volume with respect to baseline; and time to progression (TTP), defined as the time until tumor progression was observed from baseline. Tumor size was measured with calipers and the TTP of a single tumor was calculated. TTP data were used to generate Kaplan-Meier curves for progression. This method of analysis was described previously, and may reduce both inter-subject variability resulting from differences in engraftment efficacy as well as intra-subject variability in response.
(§3) In vivo drug combination studies were evaluated using CalcuSyn. For CI calculations of dual administration, the values of % cell kill (%CK) for a fixed tumor volume were determined by the log CK (LCK). LCK was calculated as LCK = (T − C) / (3.32 × Td), where Td represented the mean control group doubling time required to reach a fixed tumor volume, expressed in days. T and C were the mean times in days required to reach the same fixed tumor volume in the treated group and the control group, respectively. CK was calculated as %CK = [1 − (1 − 10LCK)] × 100. Tumor growth delay (TGD) was calculated as %TGD = [(T − C) / C] × 100, where T and C were the same values as those reported by Bruzzese et al..

Test [2] deals with U251 xenografts. The description is as above. Type of test: in vivo, female CD1-nu/nu mice. To be noted: for HR (95% CI) for tumor progression: U251. The protocol:
as §1, §2, §3

`CN[C@H]1CN(c2ccc3c(=O)c(C(=O)O)cn(-c4nccs4)c3n2)C[C@@H]1OC` [vosaroxin]: the “final tumor weight reduction compared with vehicle controls” value in test [1] (U87MG xenografts, day 35, VSR 10 mg/kg q 5 d for 5 wk IV, TMZ 16 mg/kg 5 consecutive days, RT single 4 Gy) stood at 44%; in test [2] (U251 xenografts, day 35, VSR 10 mg/kg q 5 d for 5 wk IV, TMZ 16 mg/kg 5 consecutive days, RT single 4 Gy), 42%. Also, the “HR (95% CI) for tumor progression” value is 0.8 (0.3–2.0) in test [1] (VSR vs TMZ + RT); 0.6 (0.2–1.5) in test [1] (VSR vs TMZ); 4.3 (1.2–15.6) in test [1] (VSR vs VSR + RT); 4.2 (1.4–12.5) in test [2] (VSR vs TMZ + RT); 0.6 (0.3–1.6) in test [2] (VSR vs TMZ); 4.0 (1.3–12.1) in test [2] (VSR vs VSR + RT).
